Measurements published in patent publication US20250361240A1, “PYRANOPYRIDINE COMPOUND, PROCESS FOR PREPARING THE SAME, PHARMACEUTICAL COMPOSITION AND USE THEREOF” (Zhejiang Yangli Pharmaceutical Technology Co., Ltd., priority 2024, published 2025).
Read-outs that look alike come from different tables or passages of the source.

Key:
human CYP11B2 = human CYP11B2 (Homo sapiens (Human), UniProt P19099); assay: Inhibitory activity against hCYP11B2 in G-402 CYP11B2 high expression stable transformants (aldosterone HTRF); assay type: cell-based
human CYP11B2, sequence (P19099 25-503): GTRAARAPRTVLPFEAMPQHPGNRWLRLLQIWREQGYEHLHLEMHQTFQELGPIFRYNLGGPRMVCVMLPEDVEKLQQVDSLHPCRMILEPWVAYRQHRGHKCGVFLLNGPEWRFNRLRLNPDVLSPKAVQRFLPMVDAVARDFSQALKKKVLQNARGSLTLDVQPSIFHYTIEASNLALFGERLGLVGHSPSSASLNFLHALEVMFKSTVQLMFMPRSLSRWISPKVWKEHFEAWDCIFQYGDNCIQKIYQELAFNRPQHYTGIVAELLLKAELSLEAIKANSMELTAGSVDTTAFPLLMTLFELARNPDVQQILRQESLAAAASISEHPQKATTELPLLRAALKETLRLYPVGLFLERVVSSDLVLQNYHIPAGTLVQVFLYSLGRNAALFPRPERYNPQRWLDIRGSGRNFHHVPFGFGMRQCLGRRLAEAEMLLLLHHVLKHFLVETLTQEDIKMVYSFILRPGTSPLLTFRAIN
Procedure: (§1) 1. Experimental System: G-402 CYP11B2 or CYP11B1 High Expression Stable Transformants
(§2) The above-mentioned high-expression stable transformants were constructed based on human […] cell line G-402. The artificial lentiviruses were introduced into human CYP11B2 (NM_000498.3) and CYP11B1 (NM_000497.4), respectively.
(§3) Maintenance medium: McCoy's 5A (modified, #16600082, GIBCO)+10% FBS (GIBCO)+1 μg/mL puromycin (A1113803, GIBCO).
(§4) Resuscitation and seeding medium: McCoy's 5A (modified, #16600082, GIBCO)+10% FBS (GIBCO).
(§5) Reaction medium: DMEM/F12 (#11320033, GIBCO)+2.5% activated charcoal filtered FBS (S11695, R & D).
(§6) Seeding: Cells were cultured to a suitable state after resuscitation with maintenance medium, and 96-well flat plates were seeded with seeding medium according to 1×10^4/100 μL/well (unified cell volume).
(§7) Changing solution: The supernatant was aspirated and discarded after seeding overnight (>12 hours) and adherence. 100-150 μL/well serum-free medium was added, and after being aspirated. After aspiration, 50 μL/well reaction medium was added for later use.
(§8) Formulation: Compound was diluted with reaction medium containing 0.4 μM substrate (final experimental concentration is 0.2 μM):
CYP11B2 substrate: 11-deoxycorticosterone (11-deoxycorticosterone, S4243, selleckchem). The final reaction concentration was 0.2 μM
(§9) Loading: The above compound dilutions were added to the cell plates at 50 μL/well. The background and control wells were set.
(§10) Treating and sampling: The cell plates were incubated in a cell incubator for 16 hours after loading, and then each cell plate was centrifuged at 450 g for 2 min. 75 μL supernatant was transferred to a collection plate and frozen at −80° C. for future use (or direct detection).
(§11) Detection: Homogeneous time-resolved fluorescence kit (Cisbio HTRF kit, Cat.64ALDPEG, Cat.62CRTPEG) was used to determine the concentration of aldosterone or cortisol in the supernatant.
(§12) Analysis: The absolute IC50 (Abs IC50) for each compound was calculated using a four parameter fit.

human CYP11B1 = human CYP11B1 (Homo sapiens (Human), UniProt P15538); assay: Inhibitory activity against hCYP11B1 in G-402 CYP11B1 high expression stable transformants (cortisol HTRF); assay type: cell-based; details: G-402 CYP11B1 cells, 0.2 μM 11-deoxycortisol, 16 hours; read-out: hCYP11B1 Abs IC50
human CYP11B1, sequence (P15538 25-503): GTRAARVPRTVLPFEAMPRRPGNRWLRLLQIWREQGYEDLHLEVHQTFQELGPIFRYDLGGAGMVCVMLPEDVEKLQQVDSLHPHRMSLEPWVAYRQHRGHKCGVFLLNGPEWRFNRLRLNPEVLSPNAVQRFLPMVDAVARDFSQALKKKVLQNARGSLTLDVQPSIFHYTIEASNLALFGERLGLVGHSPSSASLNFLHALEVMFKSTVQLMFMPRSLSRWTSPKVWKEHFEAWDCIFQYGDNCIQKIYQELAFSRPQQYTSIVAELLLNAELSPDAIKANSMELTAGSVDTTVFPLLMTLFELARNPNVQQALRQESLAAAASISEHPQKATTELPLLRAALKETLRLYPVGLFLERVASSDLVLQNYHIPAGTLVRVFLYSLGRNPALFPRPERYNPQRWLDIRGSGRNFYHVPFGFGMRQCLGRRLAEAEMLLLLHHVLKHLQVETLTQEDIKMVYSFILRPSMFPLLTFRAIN
Procedure: as §1, §2, §3, §4, §5, §6, §7, §8
CYP11B1 substrate: 11-deoxycortisol (11-deoxycortisol, S4775, selleckchem). The final reaction concentration was 0.2 μM.
as §9, §10, §11, §12

CYP2C9 = CYP2C9 (Homo sapiens (Human), UniProt P11712); assay: In vitro inhibitory activity against common CYP450 enzymes: CYP2C9; assay type: in vitro ADME; details: microsomes, substrate Diclofenac
CYP2C9, sequence (P11712 whole entry): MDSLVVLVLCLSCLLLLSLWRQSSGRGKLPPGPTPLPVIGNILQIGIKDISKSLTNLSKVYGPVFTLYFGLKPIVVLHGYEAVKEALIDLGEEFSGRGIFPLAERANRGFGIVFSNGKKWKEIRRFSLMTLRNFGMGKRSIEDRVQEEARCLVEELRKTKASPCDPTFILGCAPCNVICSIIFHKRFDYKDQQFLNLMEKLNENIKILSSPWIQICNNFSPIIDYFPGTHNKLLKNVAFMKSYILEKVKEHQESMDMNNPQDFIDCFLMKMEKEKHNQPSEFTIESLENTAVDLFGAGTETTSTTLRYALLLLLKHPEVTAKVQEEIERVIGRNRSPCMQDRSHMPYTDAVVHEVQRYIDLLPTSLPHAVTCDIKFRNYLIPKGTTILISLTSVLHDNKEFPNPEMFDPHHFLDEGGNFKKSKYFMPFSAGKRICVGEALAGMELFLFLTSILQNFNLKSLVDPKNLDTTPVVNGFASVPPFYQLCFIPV
Procedure: (§13) A working solution of the test compound was prepared in a solvent of dimethyl sulfoxide (DMSO) (starting at a final concentration of 50 μM, 3-fold dilution of 7 concentration points). The corresponding microsomes (CORNING, Cat No.452117) and the corresponding substrate solution were prepared (components were shown in Table 2). The working solution of the test compound and the corresponding microsomes were mixed with the corresponding substrate solution and the HLM working solution. The mixture was preheated in a 37.0° C. water bath for 10 min. NADPH cofactor (BONTAC, Cat No.BT04) was added. The resultant mixture was incubated for 10 min in a 37.0° C. water bath. The reaction was terminated by adding cold stop solution. [table] [table] The sample was centrifuged at 4000 rpm for 20 min to precipitate protein and the supernatant was transferred to HPLC water and shaken for 10 min.

CYP2D6 = CYP2D6 (Homo sapiens (Human), UniProt P10635); assay: In vitro inhibitory activity against common CYP450 enzymes: CYP2D6; assay type: in vitro ADME; details: microsomes, substrate Dextromethorphan
CYP2D6, sequence (P10635 whole entry): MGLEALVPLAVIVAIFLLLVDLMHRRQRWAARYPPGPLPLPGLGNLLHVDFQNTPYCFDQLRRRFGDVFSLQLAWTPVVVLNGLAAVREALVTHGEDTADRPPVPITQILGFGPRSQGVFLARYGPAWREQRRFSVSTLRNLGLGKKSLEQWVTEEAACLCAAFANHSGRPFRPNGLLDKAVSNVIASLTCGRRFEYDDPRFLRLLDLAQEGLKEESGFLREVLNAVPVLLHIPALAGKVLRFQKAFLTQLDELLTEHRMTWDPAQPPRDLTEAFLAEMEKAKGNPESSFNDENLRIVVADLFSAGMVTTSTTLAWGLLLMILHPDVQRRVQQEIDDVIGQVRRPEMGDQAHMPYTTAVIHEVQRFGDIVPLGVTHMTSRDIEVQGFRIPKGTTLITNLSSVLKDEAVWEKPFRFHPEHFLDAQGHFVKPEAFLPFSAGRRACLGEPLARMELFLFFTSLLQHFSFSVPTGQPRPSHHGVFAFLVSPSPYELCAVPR
Procedure: as §13

CYP3A = CYP3A (Homo sapiens, UniProt P08684); assay: In vitro inhibitory activity against common CYP450 enzymes: CYP3A (midazolam); assay type: in vitro ADME; details: human, human liver microsomes, probe Midazolam, substrate Midazolam
CYP3A, sequence (P08684 2-503 limits assumed): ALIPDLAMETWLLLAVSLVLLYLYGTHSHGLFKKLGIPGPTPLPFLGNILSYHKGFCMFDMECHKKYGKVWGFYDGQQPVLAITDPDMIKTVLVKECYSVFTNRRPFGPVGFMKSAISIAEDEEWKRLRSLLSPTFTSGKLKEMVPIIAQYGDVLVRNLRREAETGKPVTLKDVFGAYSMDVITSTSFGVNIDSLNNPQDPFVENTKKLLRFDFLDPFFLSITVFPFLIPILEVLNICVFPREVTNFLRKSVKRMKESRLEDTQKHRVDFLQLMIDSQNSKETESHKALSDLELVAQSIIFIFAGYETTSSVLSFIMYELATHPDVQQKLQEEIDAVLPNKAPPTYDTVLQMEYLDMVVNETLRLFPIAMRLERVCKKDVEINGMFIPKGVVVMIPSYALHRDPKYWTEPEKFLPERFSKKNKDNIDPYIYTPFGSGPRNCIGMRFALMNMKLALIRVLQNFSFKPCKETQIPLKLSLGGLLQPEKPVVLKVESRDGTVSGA
Procedure: as §13

cortisol levels = assay: Pharmacodynamic test in cynomolgus monkeys with ACTH stimulation: cortisol in plasma; assay type: in vivo, cynomolgus monkeys (Macaca fascicularis)
From the text: (§14) Adult cynomolgus monkeys (Macaca fascicularis) with suitable body weight and age were selected. 1 male and 1 female cynomolgus monkeys were used for experiment. The adaptation period was 1 week. On the day of the experiment, monkeys were individually housed in stainless steel mesh cages for testing.
(§15) Oral treatment and ACTH working solution (working solution diluted to the desired concentration in PBS sterile solution by ultrapure water filtration through a 0.22 μm filter using Tetracosactrin (HY-P0060, MCE)) were administered as follows: • T=0, 2 monkeys in each group were orally administered 0.5 mg/kg (compound was suspended in 5% aqueous sodium hydroxymethylcellulose solution as vehicle) in a fixed volume of 2 mL/kg; • T=+1 hour (i.e., 1 hour after administration), 14.5 μg/kg of the aforementioned ACTH working solution was injected intramuscularly.
(§16) Sampling test: Blood samples (collected in EDTA anticoagulant tubes) were collected before oral administration (Pre-dose) and 0.5 h, 1 h, 2 h, 4 h, 6 h and 12 h after administration for cortisol concentration measurement in plasma. The blood was centrifuged at 10000 rpm for 15 minutes at 4° C., followed by separation of the plasma and uniform storage at −80° C. for further analysis using an Roche biochemical analyzer to detect aldosterone and cortisol in plasma, and a portion of the plasma (0.5 h, 1 h, 2 h, 4 h, 6 h, and 12 h after administration, and an additional blood collection after 24 h) was taken simultaneously to determine the pharmacokinetic parameters by LC/MS.
(§17) The above experiment was repeated except that: T=0, two monkeys in each group were orally administered at a dose of 0.05 mg/kg (compound was suspended in 5% aqueous sodium hydroxymethylcellulose as vehicle) in a fixed volume of 2 mL/kg.

[1] = Pharmacokinetic test in cynomolgus monkeys (LC/MS); assay type: in vivo, cynomolgus monkeys (Macaca fascicularis); details: both sexes, cynomolgus monkey, plasma; for AUC(0-t): read-out: AUC0-24 h
From the text: as §14, §15, §16, §17

CCC(=O)N[C@@H]1CCCc2c(-c3ccc4c(c3)CCC(=O)N4C)cncc21 [Baxdrostat, reference compound]
IC50 (human CYP11B2; G-402 CYP11B2 cells, 0.2 μM 11-deoxycorticosterone, 16 hours, read-out: hCYP11B2 (AS) Abs IC50): 0.0281 µM
hCYP11B ½ Selectivity Fold (human CYP11B2; hCYP11B1 IC50 relative to hCYP11B2 IC50): 119.99 Fold
IC50 (human CYP11B1): 3.37 µM
IC50 (CYP2C9): 35.2 µM
IC50 (CYP2D6): > 50 µM
IC50 at 10 min (CYP3A): > 50 µM
Cortisol Concentration in Plasma (cortisol levels; 0.05 mg/kg oral, 0.5 h): 1136.1 pg/mL
Cortisol Concentration in Plasma (cortisol levels; 0.05 mg/kg oral, 1 h (ACTH at +1 hour)): 1293.5 pg/mL
Cortisol Concentration in Plasma (cortisol levels; 0.05 mg/kg oral, 2 h): 1527.0 pg/mL
Cortisol Concentration in Plasma (cortisol levels; 0.05 mg/kg oral, 4 h): 949.2 pg/mL
Cortisol Concentration in Plasma (cortisol levels; 0.05 mg/kg oral, 6 h): 499.4 pg/mL
Cortisol Concentration in Plasma (cortisol levels; 0.05 mg/kg oral, 12 h): 392.6 pg/mL
Cortisol Concentration in Plasma (cortisol levels; 0.05 mg/kg oral, Pre-dose): 784.2 pg/mL
Cortisol Concentration in Plasma (cortisol levels; 0.5 mg/kg oral, 0.5 h): 1004.1 pg/mL
Cortisol Concentration in Plasma (cortisol levels; 0.5 mg/kg oral, 1 h (ACTH at +1 hour)): 964.8 pg/mL
Cortisol Concentration in Plasma (cortisol levels; 0.5 mg/kg oral, 2 h): 1288.5 pg/mL
Cortisol Concentration in Plasma (cortisol levels; 0.5 mg/kg oral, 4 h): 556.6 pg/mL
Cortisol Concentration in Plasma (cortisol levels; 0.5 mg/kg oral, 6 h): 337.0 pg/mL
Cortisol Concentration in Plasma (cortisol levels; 0.5 mg/kg oral, 12 h): 344.6 pg/mL
Cortisol Concentration in Plasma (cortisol levels; 0.5 mg/kg oral, Pre-dose): 596.4 pg/mL
Cmax ([1]; 0.05 mg/kg, 0.05mpk oral): 6.13 ng/mL
Tmax ([1]; 0.05 mg/kg, 0.05mpk oral): 2 h
half-life ([1]; 0.05 mg/kg, 0.05mpk oral): 10.9 h
AUC(0-t) ([1]; 0.05 mg/kg, 0.05mpk oral): 90.3 ng·h/mL
Cmax ([1]; 0.5 mg/kg, 0.5mpk oral): 56.1 ng/mL
Tmax ([1]; 0.5 mg/kg, 0.5mpk oral): 2 h
half-life ([1]; 0.5 mg/kg, 0.5mpk oral): 9.25 h
AUC(0-t) ([1]; 0.5 mg/kg, 0.5mpk oral): 606 ng·h/mL
